Assay results: the NIST ThermoML archive (doi:10.1016/j.fluid.2013.06.031)

Details: Liquid, Closed cell (Static) method

CC(F)(F)CC(F)(F)F [1,1,1,3,3-pentafluorobutane]
Details	vapor or sublimation pressure [kPa]
332.79 K	194.9
333.18 K	197.1
342.65 K	261.5
347.94 K	303.9
352.87 K	348.7
357.77 K	401.1
363.03 K	459.2
367.94 K	519.8
372.87 K	586.1
378.04 K	662.3
382.95 K	741.4
387.88 K	828.9
393.02 K	927.2
398.06 K	1036.4
402.92 K	1146
408.07 K	1271.5
413.09 K	1403.8
418 K	1542.4
423.13 K	1698.6
428.15 K	1862.7
433.05 K	2034.5
438.03 K	2225.4
442.99 K	2425.5
447.89 K	2637.1
